These results are taken from PMC12213745, “Compounds from Cyclocarya paliurus leaves inhibit binary division of methicillin-resistant Staphylococcus aureus by disrupting FtsZ dynamic” (Frontiers in Microbiology, 2025).

For one test, the system named is E. faecalis. As to the kind of experiment: MIC, broth microdilution (CLSI). It counts as cell-based. To be noted: Enterococcus faecalis. An excerpt:
(§1) Staphylococcus aureus ATCC25923 and Escherichia coli ATCC25922 were obtained from the American Type Culture Collection (ATCC, Manassas, VA, USA). The Methicillin-resistant S. aureus (MRSA) clinical isolate MRSA-4, previously confirmed as mecA-positive and characterized for its antibiotic resistance profile ([Sun et al., 2023]), was used in this study. Staphylococcus epidermidis (GDMCC 1.143), Enterococcus faecalis (GDMCC 1.164), and Salmonella enterica subsp. enterica (GDMCC 1.1114) were obtained from the Guangdong Microbial Culture Collection Center (GDMCC, Guangzhou, China). The Pseudomonas aeruginosa PA14 strain was kindly provided by Professor Min Wu (Southwest Medical University, China). All bacterial strains were routinely cultured in Mueller-Hinton broth (MHB) or Luria-Bertani (LB) broth medium at 37°C with shaking at 200 rpm. Vancomycin was purchased from Solarbio Science & Technology Co., Ltd. (Beijing, China), and oxacillin was obtained from Taiji Group Hengsheng Pharmaceutical Co., Ltd. (Chengdu, China). The polyclonal rabbit primary anti-body to FtsZ was purchased from Abcam PLC (Cambridge, UK). Alexa488-conjugated goat anti-rabbit IgG was purchased from ZSGB-BIO Biotechnology (Beijing, China). DAPI staining solution was purchased from Beyotime Biotechnology (Shanghai, China).
(§2) The minimum inhibitory concentrations (MICs) of the test compounds (AA, MA, and UA) were determined using the standard broth microdilution method in accordance with the Clinical and Laboratory Standards Institute (CLSI) guidelines ([Humphries et al., 2021]). Bacteria were cultured in MHB or LB broth at 37°C with shaking (200 rpm) to the logarithmic phase, then diluted to a final density of 1 × 10^6 CFU/mL. Test compounds (dissolved in DMSO) and positive controls (vancomycin and oxacillin) were diluted in MHB and serially twofold diluted in 96-well plates. Each well was inoculated with 100 μL of bacterial suspension (1 × 10^6 CFU/mL), yielding a final bacterial density of 5 × 10^5 CFU/mL and a total volume of 200 μL. The final concentrations tested were 128 to 1 μg/mL for AA, MA, and UA; 16 to 0.5 μg/mL for vancomycin; and 64 to 0.0625 μg/mL for oxacillin. DMSO was used as a solvent control. Plates were incubated statically at 37°C for 18–24 h. After incubation, the OD600 was measured using a microplate reader (SpectraMax i3x, Molecular Devices, CA, USA). The MIC was defined as the lowest compound concentration that caused ≥ 90% inhibition of bacterial growth compared to the drug-free growth control. All tests were performed in three independent biological replicates.
(§3) Following the isolation and identification of AA, MA, and UA from ECPL, we evaluated their antibacterial activity and spectrum. The MICs of the compounds were determined against MRSA-4, S. aureus ATCC25923, S. epidermidis, and E. faecalis (Gram-positive), as well as P. aeruginosa PA14, E. coli ATCC25922, and S. enterica subsp. Enterica (Gram-negative) using the standard broth microdilution method in accordance with CLSI guidelines ([Humphries et al., 2021]).

In the next test the test system is P. aeruginosa PA14. As to the kind of experiment: MIC, broth microdilution (CLSI). The format is cell-based. Conditions: Pseudomonas aeruginosa.
Text: as §1, §2, §3

For another test, the system named is S. epidermidis (1.143). As to the kind of experiment: MIC, broth microdilution (CLSI). The format is cell-based. To be noted: Staphylococcus epidermidis.
Text: as §1, §2, §3

In test [1] the test system is S. aureus ATCC25923. Kind of test: MIC, broth microdilution (CLSI). The format is cell-based. To be noted: Staphylococcus aureus.
Text: as §1, §2, §3

Another test deals with E. coli ATCC25922. As to the kind of experiment: MIC, broth microdilution (CLSI). The format is cell-based. Conditions: Escherichia coli.
Text: as §1, §2, §3
(In general: Dilution methods test growth across graded concentrations, often in twofold steps.)

The subject of test [2] is S. aureus ATCC25923. As to the kind of experiment: SEM analysis, cell long axis. To be noted: 2 × MIC, 2 h, mean ± SD, PBS control 0.52 ± 0.05. The format is cell-based, Staphylococcus aureus. How it is done:
(§4) Scanning electron microscopy (SEM) was used to observe the morphological changes in bacterial cells treated with the isolated compounds. S. aureus ATCC 25923 and MRSA-4 were grown in MHB to mid-log phase (OD600 = 0.4–0.6) as previously described. The bacteria cultures were treated with AA, MA, or UA at 2 × MIC for 2 h at 37°C with shaking at 150 rpm. Untreated cultures (PBS group) served as the growth control. After incubation, bacterial cells were harvested by centrifugation and washed three times with PBS (pH 7.2). Coverslips (8 mm diameter) were cleaned with absolute ethanol under ultrasonication, air-dried, immersed in 0.1% (w/v) chitosan solution (dissolved in 1% acetic acid) for 5 s, and air-dried again at room temperature ([Su et al., 2022]). A 25 μL aliquot of the washed bacterial suspension was added to each coverslip and allowed to adhere for 1 h at room temperature. Adhered cells were fixed with 1 mL of 2.5% (v/v) glutaraldehyde at 4°C overnight. Fixed samples were rinsed 2–3 times with PBS (5 min per rinse), then dehydrated through a graded ethanol series: 50, 70, and 90% ethanol (each once for 5 min), followed by 100% ethanol (three times for 5 min each). After dehydration, samples were air-dried overnight at room temperature. SEM imaging was performed using an EVO 10 scanning electron microscope (Zeiss, Jena, Germany). Cell long-axis statistical analysis was conducted using ImageJ software (Version 1.42q, National Institutes of Health, MD, USA).
(§5) Having established the antibacterial activity of AA, MA, and UA, we next examined their effects on bacterial morphology. We employed SEM to examine the alterations induced by these compounds in S. aureus ATCC25923 and MRSA-4. Bacterial cultures were treated with AA, MA, or UA at 2 × MIC for 2 h, while untreated (PBS group) cultures served as negative controls. […] In PBS groups, both S. aureus ATCC25923 and MRSA-4 maintained typical spherical morphology with smooth and intact surfaces.

A further test concerns MRSA-4. Kind of test: SEM analysis, cell long axis. The format is cell-based, Methicillin-resistant S. aureus. Conditions: 2 × MIC, 2 h, mean ± SD, PBS control 0.53 ± 0.04. How it is done: as §4, §5
The subject of test [3] is S. enterica subsp. Enterica (1.1114). As to the kind of experiment: MIC, broth microdilution (CLSI). The format is cell-based, Salmonella enterica subsp. enterica. To be noted: Salmonella enterica; S. enterica subsp. Enterica (1.1114); ≥ 90% growth inhibition, 18–24 h; read-out: MIC.
Text: as §1, §2, §3

[4] abbreviates: E. faecalis, ≥ 90% growth inhibition, 18–24 h, read-out: MIC.
Where [5] appears, read: P. aeruginosa PA14, ≥ 90% growth inhibition, 18–24 h, read-out: MIC.
The mark [6] stands for this setting: S. epidermidis (1.143), ≥ 90% growth inhibition, 18–24 h, read-out: MIC.
[7] abbreviates: S. aureus ATCC25923, ≥ 90% growth inhibition, 18–24 h, read-out: MIC.
Setting [8] is: E. coli ATCC25922, ≥ 90% growth inhibition, 18–24 h, read-out: MIC.

Converted amounts (≈) assume the structure as drawn. Like-named read-outs stand apart in the source and are kept apart here.

Usually MIC stands for the lowest concentration that inhibits growth of the organism. Take `C[C@H]1[C@H](C)CC[C@]2(C(=O)O)CC[C@]3(C)C(=CC[C@@H]4[C@@]5(C)C[C@@H](O)[C@H](O)[C@@](C)(CO)[C@@H]5CC[C@]43C)[C@H]12` [AA, asiatic acid]: the MIC in the test with E. faecalis (setting [4]) is 16 µg/mL (≈ 32.7 µM); with P. aeruginosa PA14 (setting [5]), over 128 µg/mL; with S. epidermidis (1.143) (setting [6]) it was 16 µg/mL (≈ 32.7 µM); in the test on S. aureus ATCC25923 [1] (setting [7]), 32 µg/mL (≈ 65.5 µM); in the test on E. coli ATCC25922 (setting [8]), over 128 µg/mL; in test [3] it was over 128 µg/mL. In addition, the results for the “length of long axis of cells” value in the test with S. aureus ATCC25923 [2] and with MRSA-4 were 0.78 ± 0.06 μm and 0.75 ± 0.07 μm, respectively.

For the compound `CC1(C)CC[C@]2(C(=O)O)CC[C@]3(C)C(=CC[C@@H]4[C@@]5(C)C[C@@H](O)[C@H](O)C(C)(C)[C@@H]5CC[C@]43C)[C@@H]2C1` [MA, maslinic acid], the MIC with E. faecalis was 4 µg/mL (≈ 8.46 µM); against P. aeruginosa PA14 (PA14), over 128 µg/mL; in the test on S. epidermidis (1.143) it was 8 µg/mL (≈ 16.9 µM); against S. aureus ATCC25923 [1] (ATCC25923), 32 µg/mL (≈ 67.7 µM); against E. coli ATCC25922 (ATCC25922), over 128 µg/mL; in test [3], over 128 µg/mL. For the same compound, the “length of long axis of cells” value in the test on S. aureus ATCC25923 [2] came out at 0.78 ± 0.07 μm; with MRSA-4, 0.76 ± 0.10 μm.

For `C[C@H]1[C@H](C)CC[C@]2(C(=O)O)CC[C@]3(C)C(=CC[C@@H]4[C@@]5(C)CC[C@H](O)C(C)(C)[C@@H]5CC[C@]43C)[C@H]12` [UA, ursolic acid], the minimal inhibitory concentration (MIC) in the test on E. faecalis (setting [4]) is 2 µg/mL (≈ 4.38 µM); in the test on P. aeruginosa PA14 (setting [5]), over 128 µg/mL; with S. epidermidis (1.143) (setting [6]) it was 8 µg/mL (≈ 17.5 µM); with S. aureus ATCC25923 [1] (setting [7]), 16 µg/mL (≈ 35 µM); in the test with E. coli ATCC25922 (setting [8]), over 128 µg/mL; in test [3], over 128 µg/mL. In addition, the “length of long axis of cells” value in the test with S. aureus ATCC25923 [2] was 0.75 ± 0.05 μm; in the test on MRSA-4, 0.69 ± 0.06 μm.
